Reference: patent US20120277257A1, “Methods of Treating Diseases, Pharmaceutical Compositions, and Pharmaceutical Dosage Forms” (MYREXIS, INC., priority 2009, published 2012)
Where two headings read alike, the source gives them in different places.

Key:
[1] = tested on: DU-145 prostate cancer; experiment: DU-145 prostate cancer xenograft; format: in vivo, mice; conditions: 200 mg/kg oral, 5-days-on/2-days-off, after 5 cycles
[2] = tested on: NCI-H460 non-small cell lung cancer; experiment: NCI-H460 non-small cell lung cancer xenograft; format: in vivo, mice; conditions: 200 mg/kg oral, daily for 21 days
[3] = Phase I clinical trial, human plasma pharmacokinetics of oral Compound 1; format: in vivo; conditions: for AUC(0-inf) / Vd/F / AUC(0-t) / Cmax / Tmax / half-life: human, plasma, po; for Vd/F: read-out: Vz/F; for AUC(0-t): read-out: AUC(0-24)
Description: A human clinical study was initiated at a starting dose of 50 mg/m^2. Subjects had recurrent cancer refractory to available systemic therapy. Compound 1 was administered daily by mouth in tablet form for 21 consecutive days in a 28 day cycle to each enrolled subject. […] Plasma was collected pre-dose only for cycle 1 day 8. […] Patients were men and women with metastatic cancer, ranged in age from 45 to 85 years, and received doses ranging from 50 mg/m^2 to 340 mg/m^2, with a total daily dose of 100-740 mg (Tables 2A and 2B).

[4] = both sexes, 50 mg/m^2, Day 01, Cohort 1, 50 mg/m^2 (100 mg), oral daily
[5] = both sexes, 100 mg/m^2, Day 01, Cohort 2, 100 mg/m^2 (160 mg), oral daily
[6] = both sexes, 165 mg/m^2, Day 01, Cohort 3, 165 mg/m^2 (300 mg), oral daily
[7] = both sexes, 240 mg, Day 01, Cohort 6 (BID), N = 4, 240 mg, oral twice daily
[8] = both sexes, 240 mg, Day 21, Cohort 6 (BID), N = 2, 240 mg, oral twice daily
[9] = both sexes, 245 mg/m^2, Day 01, Cohort 4, 245 mg/m^2 (340-540 mg), oral daily
[10] = both sexes, 340 mg/m^2, Day 01, Cohort 5 (BID), N = 6, 340 mg/m^2 (270-370 mg), oral twice daily
[11] = both sexes, Day 21, Cohort 4, N = 6, 176-245 mg/m^2 (340-540 mg), oral daily
[12] = 50 mg/m^2, Day 01, Cohort 1, Subject 101, 50 mg/m^2 (100 mg), oral daily
[13] = 50 mg/m^2, Day 19, Cohort 1, 50 mg/m^2 (100 mg), oral daily
[14] = 50 mg/m^2, Day 19, Cohort 1, Subject 101, 50 mg/m^2 (100 mg), oral daily
[15] = 100 mg/m^2, Day 01, Cohort 2, Subject 201, 100 mg/m^2 (160 mg), oral daily

In the case of `C[C@H](O)C(=O)N1CCC(CCn2c(Sc3cc4c(cc3Br)OCO4)nc3c(N)ncnc32)CC1` [Compound 1, (2S)-1-[4-(2-{6-amino-8-[(6-bromo-1,3-benzodioxol-5-yl)thio]-9H-purin-9-yl}ethyl)piperidin-1-yl]-1-oxopropan-2-ol], the “TGI (tumor growth inhibition), average” value [1] is reported as “Average of ~80% TGI after 5”, the “time to tumor volume 1,500 mm^3” value ([2]; p = 0.006) is reported as “extended” and the “TGI (tumor growth inhibition)” value ([2]; p = 0.05) is reported as 61%. For the same molecule, the “treated mice with tumors <1,500 mm^3” value ([2]; compared to 1/10 for vehicle arm) was 4/8 treated mice have tumors, the CL/F ([3]; Day 01, Cohort 1, 50 mg/m^2 (100 mg), oral daily) was 4098 mL/h and the CL/F ([3]; Day 01, Cohort 2, 100 mg/m^2 (160 mg), oral daily) was 4343 mL/h. The CL/F ([3]; Day 01, Cohort 3, 165 mg/m^2 (300 mg), oral daily) was 2405 mL/h, the CL/F ([3]; Day 01, Cohort 4, 245 mg/m^2 (340-540 mg), oral daily) was 3118 mL/h and the CL/F ([3]; Day 01, Cohort 5 (BID), 340 mg/m^2 (270-370 mg), oral twice daily) was 2517 mL/h. It also gave a CL/F ([3]; Day 01, Cohort 5, 340 mg/m^2 (480-620 mg), oral daily) of 2500 mL/h, a CL/F ([3]; Day 01, Cohort 6 (BID), 240 mg, oral twice daily) of 5956 mL/h and a CL/F ([3]; Day 19, Cohort 1, 50 mg/m^2 (100 mg), oral daily) of 4547 mL/h. It also gave a CL/F ([3]; Day 21, Cohort 2, 100 mg/m^2 (160 mg), oral daily) of 3213 mL/h, a CL/F ([3]; Day 21, Cohort 3, 165 mg/m^2 (300 mg), oral daily) of 1502 mL/h and a CL/F ([3]; Day 21, Cohort 4, 176-245 mg/m^2 (340-540 mg), oral daily) of 3509 mL/h. For the same molecule, the CL/F ([3]; Day 21, Cohort 5 (BID), 340 mg/m^2 (330 mg), oral twice daily) was 4746 mL/h, the CL/F ([3]; Day 21, Cohort 5, 340 mg/m^2 (620 mg), oral daily) was 1323 mL/h and the CL/F ([3]; Day 21, Cohort 6 (BID), 240 mg, oral twice daily) was 4003 mL/h. The AUC(0-inf) [3, 4] was 24400 ng·h/mL, the Vd/F [3, 4] was 50.5 L and the AUC(0-inf) [3, 5] was 36800 ng·h/mL. The AUC(0-t) [3, 5] was 29900 ng·h/mL, the Vd/F [3, 5] was 61.6 L and the AUC(0-inf) [3, 6] was 125000 ng·h/mL. The AUC(0-t) [3, 6] was 91800 ng·h/mL, the Vd/F [3, 6] was 40 L and the Cmax [3, 7] was 6250 ng/mL. It also gave a Tmax [3, 7] of 1 h, a half-life [3, 7] of 5.5 h and a Cmax [3, 8] of 9200 ng/mL. For the same molecule, the Tmax [3, 8] was 1.5 h, the half-life [3, 8] was 6.2 h and the AUC(0-inf) [3, 9] was 143000 ng·h/mL. For the same molecule, the AUC(0-t) [3, 9] was 99100 ng·h/mL, the Vd/F [3, 9] was 61.4 L and the Cmax [3, 10] was 8120 ng/mL. The Tmax [3, 10] was 2 h, the half-life [3, 10] was 7.5 h and the Cmax [3, 11] was 9270 ng/mL. The Tmax [3, 11] was 2 h, the half-life [3, 11] was 13.2 h and the oral bioavailability ([3]; human cancer patients) was “orally bioavailable”. For the same molecule, the “increase in drug levels with increasing dose” value ([3]; human patients, oral tablets) was “more-than-proportional increase”, the AUC(0-t) ([3]; 50 mg/m^2, Day 01, Cohort 1, 50 mg/m^2 (100 mg), oral daily) was 20600 ng·h/mL and the Cmax [3, 12] was 1900 ng/mL. The Tmax [3, 12] was 2 h, the half-life [3, 12] was 8.5 h and the AUC(0-inf) [3, 13] was 30800 ng·h/mL. It also gave an AUC(0-t) [3, 13] of 22000 ng·h/mL, a Vd/F [3, 13] of 88 L and a Cmax [3, 14] of 1700 ng/mL. The Tmax [3, 14] was 1 h, the half-life [3, 14] was 13.4 h and the Cmax [3, 15] was 2950 ng/mL. The Tmax [3, 15] was 2 h and the half-life [3, 15] was 9.8 h.
